The target of this assay is GPX4. In kind it is biochemical. Particulars: covalent; without GCTR.

Usually IC50 stands for the concentration that gives 50% inhibition. Higher therefore signals a need for much substance.

SMILES strings stand for the structures.

The molecule `COC(=O)c1ccc([C@H]2c3[nH]c4ccccc4c3C[C@H](C(=O)OC)N2C(=O)CCl)cc1` [RSL3] came in with an IC50 of 12.4 µM. In other words, the double-digit micromolar range.

Source of the values: paper PMC10963859 (Redox Biology, 2024).
